In the kinase profiling compilation of Christmann-Franck et al. (2016):

Legend:
PIM1 (human) [1] = target: PIM1 (human) (UniProt P11309); experiment: KINOMEscan competition binding; conditions: compound 10.0 µM
PLK4 (human) = PLK4 (human) (UniProt O00444); experiment: KINOMEscan competition binding; conditions: compound 10.0 µM
TAOK1 (human) = TAOK1 (human) (UniProt Q7L7X3); experiment: KINOMEscan competition binding; conditions: compound 10.0 µM
RPS6KA1 KD2 (human) = RPS6KA1 KD2 (human) (UniProt Q15418); experiment: KINOMEscan competition binding; conditions: compound 10.0 µM
Sequence of RPS6KA1 KD2 (human) (Q15418 whole entry, looked up): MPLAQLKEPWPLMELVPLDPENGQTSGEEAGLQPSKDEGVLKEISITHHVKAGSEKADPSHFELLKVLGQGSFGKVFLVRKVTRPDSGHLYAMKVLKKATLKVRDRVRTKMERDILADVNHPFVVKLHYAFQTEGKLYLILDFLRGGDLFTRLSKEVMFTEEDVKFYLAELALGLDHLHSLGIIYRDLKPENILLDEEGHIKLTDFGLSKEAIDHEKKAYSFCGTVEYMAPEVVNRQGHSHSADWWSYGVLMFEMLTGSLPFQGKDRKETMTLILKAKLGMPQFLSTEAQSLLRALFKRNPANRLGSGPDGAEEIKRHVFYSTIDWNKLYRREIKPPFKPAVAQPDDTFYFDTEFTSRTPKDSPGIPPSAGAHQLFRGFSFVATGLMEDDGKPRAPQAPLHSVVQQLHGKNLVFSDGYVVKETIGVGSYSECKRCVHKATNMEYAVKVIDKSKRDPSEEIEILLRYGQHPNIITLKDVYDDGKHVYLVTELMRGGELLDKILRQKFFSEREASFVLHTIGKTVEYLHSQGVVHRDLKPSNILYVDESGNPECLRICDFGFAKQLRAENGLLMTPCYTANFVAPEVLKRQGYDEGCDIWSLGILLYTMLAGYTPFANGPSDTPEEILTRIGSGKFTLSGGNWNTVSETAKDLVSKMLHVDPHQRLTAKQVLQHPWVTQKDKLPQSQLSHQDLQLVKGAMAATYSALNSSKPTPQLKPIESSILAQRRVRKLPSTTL

MYLK4 (human) = MYLK4 (human) (UniProt Q86YV6); experiment: KINOMEscan competition binding; conditions: compound 10.0 µM
MAPK14 (human) = MAPK14 (human) (UniProt Q16539); experiment: KINOMEscan competition binding; conditions: compound 10.0 µM
CDK7 (human) = CDK7 (human) (UniProt P50613); experiment: KINOMEscan competition binding; conditions: compound 10.0 µM
MAPK9 (human) = MAPK9 (human) (UniProt P45984); experiment: KINOMEscan competition binding; conditions: compound 10.0 µM
PIM2 (human) [2] = target: PIM2 (human) (UniProt Q9P1W9); experiment: KINOMEscan competition binding; conditions: compound 10.0 µM
Sequence of PIM2 (human) (Q9P1W9 whole entry, looked up): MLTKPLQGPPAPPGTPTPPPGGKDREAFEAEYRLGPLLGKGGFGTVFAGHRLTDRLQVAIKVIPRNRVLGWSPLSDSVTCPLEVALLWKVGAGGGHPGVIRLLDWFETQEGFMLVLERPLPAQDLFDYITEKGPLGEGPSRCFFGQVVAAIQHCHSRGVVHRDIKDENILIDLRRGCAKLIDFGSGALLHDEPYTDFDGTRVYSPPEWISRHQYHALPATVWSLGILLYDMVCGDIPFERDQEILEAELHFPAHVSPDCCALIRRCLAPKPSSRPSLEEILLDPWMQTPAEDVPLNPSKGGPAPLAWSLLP

PIM3 (human) = PIM3 (human) (UniProt Q86V86); experiment: KINOMEscan competition binding; conditions: compound 10.0 µM
MAP2K3 (human) = MAP2K3 (human) (UniProt P46734); experiment: KINOMEscan competition binding; conditions: compound 10.0 µM
MAPK8 (human) = MAPK8 (human) (UniProt P45983); experiment: KINOMEscan competition binding; conditions: compound 10.0 µM
CLK2 (human) = CLK2 (human) (UniProt P49760); experiment: KINOMEscan competition binding; conditions: compound 10.0 µM
MAPK12 (human) = MAPK12 (human) (UniProt P53778); experiment: KINOMEscan competition binding; conditions: compound 10.0 µM
MAPK15 (human) = MAPK15 (human) (UniProt Q8TD08); experiment: KINOMEscan competition binding; conditions: compound 10.0 µM
CSK (human) = CSK (human) (UniProt P41240); experiment: KINOMEscan competition binding; conditions: compound 10.0 µM
MAPK10 (human) = MAPK10 (human) (UniProt P53779); experiment: KINOMEscan competition binding; conditions: compound 10.0 µM
HIPK1 (human) = HIPK1 (human) (UniProt Q86Z02); experiment: KINOMEscan competition binding; conditions: compound 10.0 µM
TLK2 (human) = TLK2 (human) (UniProt Q86UE8); experiment: KINOMEscan competition binding; conditions: compound 10.0 µM
TTK (human) [3] = target: TTK (human) (UniProt P33981); experiment: KINOMEscan competition binding; conditions: for kinase still bound, per cent of control: compound 10.0 µM
Sequence of TTK (human) (P33981 whole entry, looked up): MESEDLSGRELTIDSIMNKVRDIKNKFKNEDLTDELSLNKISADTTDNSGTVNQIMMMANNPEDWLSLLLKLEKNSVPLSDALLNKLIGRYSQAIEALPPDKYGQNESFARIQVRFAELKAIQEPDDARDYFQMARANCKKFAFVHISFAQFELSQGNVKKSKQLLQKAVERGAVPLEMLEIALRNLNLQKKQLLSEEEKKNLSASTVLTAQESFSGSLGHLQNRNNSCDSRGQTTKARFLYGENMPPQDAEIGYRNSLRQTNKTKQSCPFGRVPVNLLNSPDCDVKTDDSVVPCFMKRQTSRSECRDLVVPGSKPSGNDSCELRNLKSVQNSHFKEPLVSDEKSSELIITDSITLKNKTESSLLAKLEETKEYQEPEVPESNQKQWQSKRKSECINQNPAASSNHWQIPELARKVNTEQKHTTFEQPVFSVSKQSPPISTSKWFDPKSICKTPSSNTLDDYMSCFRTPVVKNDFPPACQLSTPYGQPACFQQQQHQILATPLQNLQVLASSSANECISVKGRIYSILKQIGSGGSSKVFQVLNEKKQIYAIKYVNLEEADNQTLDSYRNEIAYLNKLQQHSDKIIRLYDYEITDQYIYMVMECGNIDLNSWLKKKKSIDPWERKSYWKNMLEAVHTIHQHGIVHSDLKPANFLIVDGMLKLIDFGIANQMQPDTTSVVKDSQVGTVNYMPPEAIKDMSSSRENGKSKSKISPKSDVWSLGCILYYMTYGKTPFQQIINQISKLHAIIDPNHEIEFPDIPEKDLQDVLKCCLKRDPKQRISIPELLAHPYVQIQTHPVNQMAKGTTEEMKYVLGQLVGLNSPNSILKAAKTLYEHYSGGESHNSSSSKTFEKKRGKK

CDK16 (human) = CDK16 (human) (UniProt Q00536); experiment: KINOMEscan competition binding; conditions: compound 10.0 µM
PIM1 (human) [4] = target: PIM1 (human) (UniProt P11309); experiment: SelectScreen, TR FRET
PIM2 (human) [5] = target: PIM2 (human) (UniProt Q9P1W9); experiment: SelectScreen, TR FRET
RPS6KA6 KD2 (human) = RPS6KA6 KD2 (human) (UniProt Q9UK32); experiment: KINOMEscan competition binding; conditions: compound 10.0 µM
PRKD3 (human) = PRKD3 (human) (UniProt O94806); experiment: KINOMEscan competition binding; conditions: compound 10.0 µM
CLK1 (human) = CLK1 (human) (UniProt P49759); experiment: KINOMEscan competition binding; conditions: compound 10.0 µM
DCLK1 (human) = DCLK1 (human) (UniProt O15075); experiment: KINOMEscan competition binding; conditions: compound 10.0 µM
SLK (human) = SLK (human) (UniProt Q9H2G2); experiment: KINOMEscan competition binding; conditions: compound 10.0 µM
INSR (human) = INSR (human) (UniProt P06213); experiment: KINOMEscan competition binding; conditions: compound 10.0 µM
DAPK3 (human) = DAPK3 (human) (UniProt O43293); experiment: KINOMEscan competition binding; conditions: compound 10.0 µM
PTK2B (human) = PTK2B (human) (UniProt Q14289); experiment: KINOMEscan competition binding; conditions: compound 10.0 µM
CAMK1D (human) = CAMK1D (human) (UniProt Q8IU85); experiment: KINOMEscan competition binding; conditions: compound 10.0 µM
PRKD1 (human) = PRKD1 (human) (UniProt Q15139); experiment: KINOMEscan competition binding; conditions: compound 10.0 µM
CAMK2A (human) = CAMK2A (human) (UniProt Q9UQM7); experiment: KINOMEscan competition binding; conditions: compound 10.0 µM
RPS6KA2 KD2 (human) = RPS6KA2 KD2 (human) (UniProt Q15349); experiment: KINOMEscan competition binding; conditions: compound 10.0 µM
GAK (human) = GAK (human) (UniProt O14976); experiment: KINOMEscan competition binding; conditions: compound 10.0 µM
DCLK2 (human) = DCLK2 (human) (UniProt Q8N568); experiment: KINOMEscan competition binding; conditions: compound 10.0 µM
DAPK2 (human) = DAPK2 (human) (UniProt Q9UIK4); experiment: KINOMEscan competition binding; conditions: compound 10.0 µM
Sequence of DAPK2 (human) (Q9UIK4 whole entry, looked up): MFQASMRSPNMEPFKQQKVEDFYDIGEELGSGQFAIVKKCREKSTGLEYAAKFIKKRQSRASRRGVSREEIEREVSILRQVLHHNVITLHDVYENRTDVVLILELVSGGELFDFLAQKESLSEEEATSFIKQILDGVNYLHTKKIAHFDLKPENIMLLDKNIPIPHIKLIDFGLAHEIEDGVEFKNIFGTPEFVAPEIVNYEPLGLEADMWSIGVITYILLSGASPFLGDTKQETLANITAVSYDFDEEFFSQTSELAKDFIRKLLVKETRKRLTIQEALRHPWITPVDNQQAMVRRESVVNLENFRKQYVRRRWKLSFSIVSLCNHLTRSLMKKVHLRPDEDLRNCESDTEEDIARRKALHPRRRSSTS

STK33 (human) = STK33 (human) (UniProt Q9BYT3); experiment: KINOMEscan competition binding; conditions: compound 10.0 µM
TNK1 (human) = TNK1 (human) (UniProt Q13470); experiment: KINOMEscan competition binding; conditions: compound 10.0 µM
DAPK1 (human) = DAPK1 (human) (UniProt P53355); experiment: KINOMEscan competition binding; conditions: compound 10.0 µM
Sequence of DAPK1 (human) (P53355 whole entry, looked up): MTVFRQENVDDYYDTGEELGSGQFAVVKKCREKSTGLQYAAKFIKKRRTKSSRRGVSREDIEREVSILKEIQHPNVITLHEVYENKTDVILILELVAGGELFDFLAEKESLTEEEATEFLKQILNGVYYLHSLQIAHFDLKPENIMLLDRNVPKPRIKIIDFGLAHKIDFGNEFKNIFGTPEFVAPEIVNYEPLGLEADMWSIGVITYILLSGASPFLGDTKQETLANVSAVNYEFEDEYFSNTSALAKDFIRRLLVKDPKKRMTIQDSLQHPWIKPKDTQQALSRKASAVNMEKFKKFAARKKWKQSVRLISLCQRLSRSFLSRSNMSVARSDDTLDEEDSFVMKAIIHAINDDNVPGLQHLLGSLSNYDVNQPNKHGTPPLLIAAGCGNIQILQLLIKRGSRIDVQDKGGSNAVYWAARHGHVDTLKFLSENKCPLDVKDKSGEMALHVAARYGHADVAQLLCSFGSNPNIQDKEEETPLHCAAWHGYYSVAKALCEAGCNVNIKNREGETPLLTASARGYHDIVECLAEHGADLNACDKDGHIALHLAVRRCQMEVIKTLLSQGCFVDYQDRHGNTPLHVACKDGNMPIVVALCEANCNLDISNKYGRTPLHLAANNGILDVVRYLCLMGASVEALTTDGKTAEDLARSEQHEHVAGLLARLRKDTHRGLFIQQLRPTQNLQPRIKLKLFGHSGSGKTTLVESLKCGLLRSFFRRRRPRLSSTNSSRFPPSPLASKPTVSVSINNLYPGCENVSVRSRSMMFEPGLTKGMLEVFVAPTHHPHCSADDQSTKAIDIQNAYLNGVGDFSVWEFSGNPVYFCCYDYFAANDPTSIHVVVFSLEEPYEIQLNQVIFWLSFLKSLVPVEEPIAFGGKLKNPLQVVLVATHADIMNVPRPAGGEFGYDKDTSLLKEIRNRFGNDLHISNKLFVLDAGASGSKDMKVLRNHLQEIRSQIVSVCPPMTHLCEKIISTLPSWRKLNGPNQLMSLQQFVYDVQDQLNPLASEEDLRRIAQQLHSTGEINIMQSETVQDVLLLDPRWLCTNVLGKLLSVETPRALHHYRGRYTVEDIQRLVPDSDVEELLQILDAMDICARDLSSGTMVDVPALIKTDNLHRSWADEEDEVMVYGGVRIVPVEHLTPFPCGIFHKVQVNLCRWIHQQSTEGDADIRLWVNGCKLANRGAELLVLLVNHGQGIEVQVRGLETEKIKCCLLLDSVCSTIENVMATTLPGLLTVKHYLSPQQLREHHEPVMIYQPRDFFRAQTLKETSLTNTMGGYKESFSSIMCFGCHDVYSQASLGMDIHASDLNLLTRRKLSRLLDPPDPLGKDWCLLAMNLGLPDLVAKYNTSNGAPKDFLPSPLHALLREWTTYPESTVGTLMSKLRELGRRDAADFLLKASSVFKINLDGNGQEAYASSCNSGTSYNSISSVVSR

ALK (human) = ALK (human) (UniProt Q9UM73); experiment: KINOMEscan competition binding; conditions: compound 10.0 µM
INSRR (human) = INSRR (human) (UniProt P14616); experiment: KINOMEscan competition binding; conditions: compound 10.0 µM
FER (human) = FER (human) (UniProt P16591); experiment: KINOMEscan competition binding; conditions: compound 10.0 µM
IGF1R (human) = IGF1R (human) (UniProt P08069); experiment: KINOMEscan competition binding; conditions: compound 10.0 µM
PLK3 (human) = PLK3 (human) (UniProt Q9H4B4); experiment: KINOMEscan competition binding; conditions: compound 10.0 µM
PTK2 (human) = PTK2 (human) (UniProt Q05397); experiment: KINOMEscan competition binding; conditions: compound 10.0 µM
MYLK (human) = MYLK (human) (UniProt Q15746); experiment: KINOMEscan competition binding; conditions: compound 10.0 µM
TTK (human) [6] = target: TTK (human) (UniProt P33981); experiment: SelectScreen, TR FRET
PLK1 (human) = PLK1 (human) (UniProt P53350); experiment: KINOMEscan competition binding; conditions: compound 10.0 µM

Sequence of PLK4 (human) (O00444 whole entry, looked up): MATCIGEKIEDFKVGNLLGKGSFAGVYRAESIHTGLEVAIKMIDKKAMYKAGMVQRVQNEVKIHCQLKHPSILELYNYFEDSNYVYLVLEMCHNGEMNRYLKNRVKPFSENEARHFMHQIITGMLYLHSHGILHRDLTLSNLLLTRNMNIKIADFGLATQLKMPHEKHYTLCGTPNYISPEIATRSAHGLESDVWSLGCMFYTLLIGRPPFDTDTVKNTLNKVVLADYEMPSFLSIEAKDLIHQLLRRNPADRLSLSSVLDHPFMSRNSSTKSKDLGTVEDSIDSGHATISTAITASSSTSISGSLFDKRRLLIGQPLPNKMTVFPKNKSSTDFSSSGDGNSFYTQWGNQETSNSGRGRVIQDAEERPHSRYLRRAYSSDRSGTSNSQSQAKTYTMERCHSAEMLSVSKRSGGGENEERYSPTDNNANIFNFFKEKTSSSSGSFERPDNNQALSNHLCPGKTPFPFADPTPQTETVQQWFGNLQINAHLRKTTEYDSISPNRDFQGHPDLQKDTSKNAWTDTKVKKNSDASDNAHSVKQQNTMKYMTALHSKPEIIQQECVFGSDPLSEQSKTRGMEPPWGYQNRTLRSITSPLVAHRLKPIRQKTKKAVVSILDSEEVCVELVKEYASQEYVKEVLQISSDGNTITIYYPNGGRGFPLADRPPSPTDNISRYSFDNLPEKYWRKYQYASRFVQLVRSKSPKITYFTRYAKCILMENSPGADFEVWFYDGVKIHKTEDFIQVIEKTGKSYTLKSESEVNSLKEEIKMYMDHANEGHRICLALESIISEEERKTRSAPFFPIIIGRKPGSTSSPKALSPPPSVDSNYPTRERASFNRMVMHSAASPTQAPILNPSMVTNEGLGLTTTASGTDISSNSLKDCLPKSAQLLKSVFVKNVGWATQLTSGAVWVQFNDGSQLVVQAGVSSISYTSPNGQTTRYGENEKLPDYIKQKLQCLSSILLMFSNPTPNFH
Sequence of PIM1 (human) (P11309 whole entry, looked up): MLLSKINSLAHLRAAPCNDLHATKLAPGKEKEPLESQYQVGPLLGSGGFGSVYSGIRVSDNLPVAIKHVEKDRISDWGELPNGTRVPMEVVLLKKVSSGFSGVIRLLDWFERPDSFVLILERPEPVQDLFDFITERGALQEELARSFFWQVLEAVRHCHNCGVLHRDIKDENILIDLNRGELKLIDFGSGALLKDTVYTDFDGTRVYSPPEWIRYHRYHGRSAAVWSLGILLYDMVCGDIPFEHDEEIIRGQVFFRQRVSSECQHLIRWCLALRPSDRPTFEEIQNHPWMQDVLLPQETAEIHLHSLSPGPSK

With `CN(C)C1=NC(=O)/C(=C/c2ccc(-c3ccc(S(N)(=O)=O)cc3)o2)S1` the kinase still bound, per cent of control (PIM1 (human) [1]) was 3.5%, the kinase still bound, per cent of control (PLK4 (human)) was 0.7% and the kinase still bound, per cent of control (TAOK1 (human)) was 9.2%. The kinase still bound, per cent of control (RPS6KA1 KD2 (human)) was 31%, the kinase still bound, per cent of control (MYLK4 (human)) was 24% and the kinase still bound, per cent of control (MAPK14 (human)) was 21%. It also gave a kinase still bound, per cent of control (CDK7 (human)) of 22%, a kinase still bound, per cent of control (MAPK9 (human)) of 8.1% and a kinase still bound, per cent of control (PIM2 (human) [2]) of 3.4%. For the same compound, the kinase still bound, per cent of control (PIM3 (human)) was 2.9%, the kinase still bound, per cent of control (MAP2K3 (human)) was 16% and the kinase still bound, per cent of control (MAPK8 (human)) was 33%. The kinase still bound, per cent of control (CLK2 (human)) was 33%, the kinase still bound, per cent of control (MAPK12 (human)) was 33% and the kinase still bound, per cent of control (MAPK15 (human)) was 19%. It also gave a kinase still bound, per cent of control (CSK (human)) of 31%, a kinase still bound, per cent of control (MAPK10 (human)) of 22% and a kinase still bound, per cent of control (HIPK1 (human)) of 4.3%. For the same compound, the kinase still bound, per cent of control (TLK2 (human)) was 33%, the kinase still bound, per cent of control (TTK (human) [3]) was 9% and the kinase still bound, per cent of control (CDK16 (human)) was 0.45%. The IC50 (PIM1 (human) [4]) was 1890 nM and the IC50 (PIM2 (human) [5]) was 6450 nM.

In the case of `COc1cc(C(=O)NC2CCN(C)CC2)ccc1Nc1ncc2c(n1)N(C1CCCC1)CCC(=O)N2C`, the kinase still bound, per cent of control (RPS6KA6 KD2 (human)) is reported as 14%, the kinase still bound, per cent of control (PRKD3 (human)) is reported as 32% and the kinase still bound, per cent of control (CLK1 (human)) is reported as 27%. It also gave a kinase still bound, per cent of control (PLK4 (human)) of 11%, a kinase still bound, per cent of control (DCLK1 (human)) of 6.1% and a kinase still bound, per cent of control (SLK (human)) of 12%. For the same compound, the kinase still bound, per cent of control (INSR (human)) was 32%, the kinase still bound, per cent of control (DAPK3 (human)) was 11% and the kinase still bound, per cent of control (PTK2B (human)) was 26%. The kinase still bound, per cent of control (RPS6KA1 KD2 (human)) was 25%, the kinase still bound, per cent of control (CAMK1D (human)) was 29% and the kinase still bound, per cent of control (PRKD1 (human)) was 28%. For the same compound, the kinase still bound, per cent of control (CAMK2A (human)) was 21%, the kinase still bound, per cent of control (CLK2 (human)) was 21% and the kinase still bound, per cent of control (RPS6KA2 KD2 (human)) was 14%. It also gave a kinase still bound, per cent of control (GAK (human)) of 4.2%, a kinase still bound, per cent of control (DCLK2 (human)) of 8.6% and a kinase still bound, per cent of control (DAPK2 (human)) of 12%. It also gave a kinase still bound, per cent of control (STK33 (human)) of 5.2%, a kinase still bound, per cent of control (TNK1 (human)) of 28% and a kinase still bound, per cent of control (DAPK1 (human)) of 4%. It also gave a kinase still bound, per cent of control (ALK (human)) of 16%, a kinase still bound, per cent of control (INSRR (human)) of 19% and a kinase still bound, per cent of control (FER (human)) of 33%. It also gave a kinase still bound, per cent of control (IGF1R (human)) of 20%, a kinase still bound, per cent of control (PLK3 (human)) of 0% and a Kd (TTK (human) [3]) of 576 nM. The kinase still bound, per cent of control (TTK (human) [3]) was 5.2%, the kinase still bound, per cent of control (PTK2 (human)) was 2.6% and the kinase still bound, per cent of control (MYLK (human)) was 2.2%. It also gave an IC50 (TTK (human) [6]) of 2280 nM.

With `COc1cc(C(=O)NC2CCN(C)CC2)ccc1Nc1ncc2c(n1)N(C1CCC(O)CC1)CCC(=O)N2C` (stereo not given) the kinase still bound, per cent of control (RPS6KA6 KD2 (human)) was 22%, the kinase still bound, per cent of control (PLK4 (human)) was 8% and the kinase still bound, per cent of control (DCLK1 (human)) was 11%. For the same compound, the kinase still bound, per cent of control (SLK (human)) was 20%, the kinase still bound, per cent of control (INSR (human)) was 30% and the kinase still bound, per cent of control (DAPK3 (human)) was 9.9%. The kinase still bound, per cent of control (PTK2B (human)) was 12%, the kinase still bound, per cent of control (RPS6KA1 KD2 (human)) was 15% and the kinase still bound, per cent of control (RPS6KA2 KD2 (human)) was 9.6%. It also gave a kinase still bound, per cent of control (GAK (human)) of 2.7%, a kinase still bound, per cent of control (DCLK2 (human)) of 31% and a kinase still bound, per cent of control (DAPK2 (human)) of 24%. For the same compound, the kinase still bound, per cent of control (STK33 (human)) was 5.6%, the kinase still bound, per cent of control (PLK1 (human)) was 2% and the kinase still bound, per cent of control (DAPK1 (human)) was 8.2%. For the same compound, the kinase still bound, per cent of control (ALK (human)) was 14%, the kinase still bound, per cent of control (INSRR (human)) was 23% and the kinase still bound, per cent of control (PLK3 (human)) was 4.1%. It also gave a kinase still bound, per cent of control (TTK (human) [3]) of 0.85%, a kinase still bound, per cent of control (PTK2 (human)) of 7.1% and a kinase still bound, per cent of control (MYLK (human)) of 3%.
